Measured values published in PubChem BioAssay AID1259407 (Chemical Carcinogenesis Research Information System (CCRIS), 2018).
Activity calls are given as the source filed them. How the calls were made is not given here.

System: CCRIS mutagenicity, Ames/micronucleus/aberration tests
Test: CCRIS mutagenicity studies
[1] = Test System: AMES SALMONELLA TYPHIMURIUM, Strain/Indicator: TA98, Metabolic Activation: NONE, Method: PREINCUBATION
[2] = Test System: AMES SALMONELLA TYPHIMURIUM, Strain/Indicator: TA100, Metabolic Activation: NONE, Method: PREINCUBATION
[3] = Test System: AMES SALMONELLA TYPHIMURIUM, Strain/Indicator: TA1535, Metabolic Activation: NONE, Method: PREINCUBATION

Measured: mutagenic call

O=c1c(O)c(C2=CC(O)(CCO)C(O)(CCO)C=C2)oc2c1C(O)=CC(O)(CCO)C2 (stereo not drawn)
inactive: Test System: AMES SALMONELLA TYPHIMURIUM, Strain/Indicator: TA98, Metabolic Activation: NONE, Method: STANDARD PLATE inactive; negative | Test System: AMES SALMONELLA TYPHIMURIUM, Strain/Indicator: TA98, Metabolic Activation: RAT, LIVER, S-9, AROCLOR 1254, Method: STANDARD PLATE inactive; negative | Test System: AMES SALMONELLA TYPHIMURIUM, Strain/Indicator: TA100, Metabolic Activation: NONE, Method: STANDARD PLATE inactive; negative | Test System: AMES SALMONELLA TYPHIMURIUM, Strain/Indicator: TA100, Metabolic Activation: RAT, LIVER, S-9, AROCLOR 1254, Method: STANDARD PLATE inactive; negative | Test System: AMES SALMONELLA TYPHIMURIUM, Strain/Indicator: TA1535, Metabolic Activation: NONE, Method: STANDARD PLATE inactive; negative | Test System: AMES SALMONELLA TYPHIMURIUM, Strain/Indicator: TA1535, Metabolic Activation: RAT, LIVER, S-9, AROCLOR 1254, Method: STANDARD PLATE inactive; negative | Test System: AMES SALMONELLA TYPHIMURIUM, Strain/Indicator: TA1537, Metabolic Activation: NONE, Method: STANDARD PLATE inactive; negative | Test System: AMES SALMONELLA TYPHIMURIUM, Strain/Indicator: TA1537, Metabolic Activation: RAT, LIVER, S-9, AROCLOR 1254, Method: STANDARD PLATE inactive; negative | Test System: AMES SALMONELLA TYPHIMURIUM, Strain/Indicator: TA1538, Metabolic Activation: NONE, Method: STANDARD PLATE inactive; negative | Test System: AMES SALMONELLA TYPHIMURIUM, Strain/Indicator: TA1538, Metabolic Activation: RAT, LIVER, S-9, AROCLOR 1254, Method: STANDARD PLATE inactive; negative

Nc1nc(N)nc(N)n1
inactive: End Point: IN VITRO CHROMOSOMAL ABERRATIONS, Test System: CHINESE HAMSTER OVARY CELLS, Metabolic Activation: NONE inactive; negative | End Point: IN VITRO CHROMOSOMAL ABERRATIONS, Test System: CHINESE HAMSTER OVARY CELLS, Metabolic Activation: RAT, LIVER, S-9, AROCLOR 1254 inactive; negative | Test System: AMES SALMONELLA TYPHIMURIUM, Strain/Indicator: TA98, Metabolic Activation: HAMSTER, LIVER, S-9, AROCLOR 1254, Method: PREINCUBATION inactive; negative | [1] inactive; negative | Test System: AMES SALMONELLA TYPHIMURIUM, Strain/Indicator: TA98, Metabolic Activation: RAT, LIVER, S-9, AROCLOR 1254, Method: PREINCUBATION inactive; negative | Test System: AMES SALMONELLA TYPHIMURIUM, Strain/Indicator: TA100, Metabolic Activation: HAMSTER, LIVER, S-9, AROCLOR 1254, Method: PREINCUBATION inactive; negative | [2] inactive; negative | Test System: AMES SALMONELLA TYPHIMURIUM, Strain/Indicator: TA100, Metabolic Activation: RAT, LIVER, S-9, AROCLOR 1254, Method: PREINCUBATION inactive; negative | Test System: AMES SALMONELLA TYPHIMURIUM, Strain/Indicator: TA1535, Metabolic Activation: HAMSTER, LIVER, S-9, AROCLOR 1254, Method: PREINCUBATION inactive; negative | [3] inactive; negative | Test System: AMES SALMONELLA TYPHIMURIUM, Strain/Indicator: TA1535, Metabolic Activation: RAT, LIVER, S-9, AROCLOR 1254, Method: PREINCUBATION inactive; negative | Test System: AMES SALMONELLA TYPHIMURIUM, Strain/Indicator: TA1537, Metabolic Activation: HAMSTER, LIVER, S-9, AROCLOR 1254, Method: PREINCUBATION inactive; negative | Test System: AMES SALMONELLA TYPHIMURIUM, Strain/Indicator: TA1537, Metabolic Activation: NONE, Method: PREINCUBATION inactive; negative | Test System: AMES SALMONELLA TYPHIMURIUM, Strain/Indicator: TA1537, Metabolic Activation: RAT, LIVER, S-9, AROCLOR 1254, Method: PREINCUBATION inactive; negative | Test System: UDS RAT HEPATOCYTES, Strain/Indicator: BROMODEOXYURIDINE INCORP, Metabolic Activation: NONE, Method: FLOW CYTOMETRIC ANALYSIS inactive; negative | Test System: UDS RAT HEPATOCYTES, Strain/Indicator: THY INCORP, Metabolic Activation: NONE, Method: AUTORADIOGRAPHY inactive; negative

CCC/C=C(/C=O)CC
inactive: Test System: AMES SALMONELLA TYPHIMURIUM, Strain/Indicator: TA97, Metabolic Activation: HAMSTER, LIVER, S-9, AROCLOR 1254 (10 OR 30%), Method: PREINCUBATION inactive; negative | Test System: AMES SALMONELLA TYPHIMURIUM, Strain/Indicator: TA97, Metabolic Activation: NONE, Method: PREINCUBATION inactive; negative | Test System: AMES SALMONELLA TYPHIMURIUM, Strain/Indicator: TA97, Metabolic Activation: RAT, LIVER, S-9, AROCLOR 1254 (10 OR 30%), Method: PREINCUBATION inactive; negative | Test System: AMES SALMONELLA TYPHIMURIUM, Strain/Indicator: TA98, Metabolic Activation: HAMSTER, LIVER, S-9, AROCLOR 1254 (10 OR 30%), Method: PREINCUBATION inactive; negative | [1] inactive; negative | Test System: AMES SALMONELLA TYPHIMURIUM, Strain/Indicator: TA98, Metabolic Activation: RAT, LIVER, S-9, AROCLOR 1254 (10 OR 30%), Method: PREINCUBATION inactive; negative | Test System: AMES SALMONELLA TYPHIMURIUM, Strain/Indicator: TA100, Metabolic Activation: HAMSTER, LIVER, S-9, AROCLOR 1254 (10 OR 30%), Method: PREINCUBATION inactive; negative | [2] inactive; negative | Test System: AMES SALMONELLA TYPHIMURIUM, Strain/Indicator: TA100, Metabolic Activation: RAT, LIVER, S-9, AROCLOR 1254 (10 OR 30%), Method: PREINCUBATION inactive; negative | Test System: AMES SALMONELLA TYPHIMURIUM, Strain/Indicator: TA1535, Metabolic Activation: HAMSTER, LIVER, S-9, AROCLOR 1254 (10 OR 30%), Method: PREINCUBATION inactive; negative | [3] inactive; negative | Test System: AMES SALMONELLA TYPHIMURIUM, Strain/Indicator: TA1535, Metabolic Activation: RAT, LIVER, S-9, AROCLOR 1254 (10 OR 30%), Method: PREINCUBATION inactive; negative
